Data taken from PubChem BioAssay AID743284 (The Scripps Research Institute Molecular Screening Center, 2014).
Activity calls are given as the source filed them.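 Rule for the calls: active = compounds whose fitted concentration for half-maximal reporter inhibition is 10 µM or lower; inactive = the rest.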

Target: COUP transcription factor 2 (Homo sapiens) (UniProt P24468)
Assay: NR2F2 transcriptional activity inhibitors, potency, late-stage follow-up, cell-based, luciferase reporter, HEK293, powder samples, round 000 (AID 743284)
Details: HEK293 NGFI-A luciferase reporter, luminescence

COUP transcription factor 2 (Homo sapiens), sequence (P24468 whole entry, looked up): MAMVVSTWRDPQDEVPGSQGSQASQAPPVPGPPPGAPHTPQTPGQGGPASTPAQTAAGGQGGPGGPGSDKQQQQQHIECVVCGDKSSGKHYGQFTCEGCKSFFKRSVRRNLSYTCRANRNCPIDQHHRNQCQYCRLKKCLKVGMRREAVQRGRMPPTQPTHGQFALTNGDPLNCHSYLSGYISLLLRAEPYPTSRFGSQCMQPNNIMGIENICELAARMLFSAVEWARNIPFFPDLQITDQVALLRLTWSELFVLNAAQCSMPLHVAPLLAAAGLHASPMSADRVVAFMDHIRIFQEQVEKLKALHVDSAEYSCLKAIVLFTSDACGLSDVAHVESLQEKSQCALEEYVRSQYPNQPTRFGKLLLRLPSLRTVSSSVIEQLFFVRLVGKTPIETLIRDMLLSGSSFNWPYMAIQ

| SMILES | IC50 |
| --- | --- |
| COc1ccc(OC)c(CCNC(=O)Cn2nc(C)c3c(C)n(-c4ccc(C)cc4)nc3c2=O)c1 | 3.14 µM |
| CCOC(=O)C1CCCN(S(=O)(=O)c2ccc(S(=O)(=O)N(CC)CC)cc2)C1 (stereo not drawn) | 3.02 µM |
| Cc1sc2ncnc(NCCc3ccc(S(N)(=O)=O)cc3)c2c1C | 5.74 µM |
| Cc1sc2ncnc(NCC3COc4ccccc4O3)c2c1C (stereo not drawn) | 3.27 µM |
| Cn1nccc1C(=O)NC1CCCc2c1cnn2-c1ccc(C(C)(C)C)cc1 (stereo not drawn) | 1.38 µM |
| CCOc1cc(S(=O)(=O)NCc2ccncc2)ccc1Cl | 2.06 µM |
| COc1ccc(NS(=O)(=O)c2cccc(NC(=O)c3ccc(Cl)nc3)c2)cc1 | 3.46 µM |
| COc1ccc(CCNc2ncnc3sccc23)cc1OC | 1.79 µM |
| Cc1oc(-c2ccc(Cl)cc2)nc1CS(=O)CC(=O)NCCCN1CCN(Cc2ccccc2)CC1 (stereo not drawn) | 6.24 µM |
| CCN(CC)S(=O)(=O)c1cccc(NC(=O)CNc2cccc(S(=O)(=O)N3CCCC3)c2)c1 | 3.99 µM |
| Cc1cc(-n2c(C)cc(C(=O)CSc3ncnc4ccccc34)c2C)no1 | 6.99 µM |
| Cc1cc(C)c(S(=O)(=O)NCc2ccncc2)c(C)c1 | 5.42 µM |
| CC1Cc2cc(-c3csc(NC(=O)Cc4cccs4)n3)ccc2N1S(C)(=O)=O (stereo not drawn) | 2.3 µM |
| CCC1CCCCN1C(=O)c1cc(COc2ccc3ncccc3c2)on1 (stereo not drawn) | 3.33 µM |
| CCOC(=O)N1CCN(C(=O)CSCC(=O)Nc2nc(-c3ccc(-c4ccccc4)cc3)cs2)CC1 | 2.91 µM |
| COc1ccc(CCNc2ncnc3sc(C)cc23)cc1OC | 1.49 µM |
| Cc1cc(-n2nc3ccccc3n2)c2oc(SCC(=O)NC(C)(C)C)nc2c1 | inactive |
| O=S(=O)(NCC1CCCO1)c1ccc(-c2ccc(S(=O)(=O)NCC3CCCO3)cc2)cc1 (stereo not drawn) | 1.87 µM |
| O=C(Nc1ccncc1)c1ccc(Cl)c(S(=O)(=O)N2CCc3ccccc32)c1 | 3.86 µM |
| Cc1ccc(S(=O)(=O)CC2CSc3nc4ccccc4n32)cc1 (stereo not drawn) | 4.16 µM |
| COc1ccc(NS(=O)(=O)c2ccc(-c3coc(C)n3)cc2)cc1OC | 5.73 µM |
| Cc1ccc(OCCN2CCN(c3ncnc4sc(C)c(C)c34)CC2)cc1 | 3.43 µM |
| Cc1nn(C)c(C)c1CN(C)S(=O)(=O)c1ccc2ccccc2c1 | 3.27 µM |
| CC(Nc1ncnc2ccccc12)c1ccccc1 (stereo not drawn) | 4.97 µM |
| COc1ccc(C2=Nn3c([n+](C)c4ccccc43)SC2)cc1 | 4.8 µM |
| CC(=O)Nc1ccccc1OCC(=O)c1cc(C)n(Cc2cccs2)c1C | 0.586 µM |
| CN(CC1CCCO1)S(=O)(=O)c1ccc(C(=O)Nc2nc3cc4c(cc3s2)OCO4)cc1 (stereo not drawn) | 1.99 µM |
| COc1ccc(CN(C)c2ccc(S(=O)(=O)N3CCN(C)CC3)cc2[N+](=O)[O-])cc1OC | 2.76 µM |
